Test results as given in PubChem BioAssay AID1996.
Values after ≈ are worked out from the molar mass of the structure shown.

conditions: buffer; pH 7.4; 200.0 µM

`O=C(O)CN1CCCCCC1=O` and `O=C(CSc1ccccc1C(=O)O)NC1CCCCCC1` cannot be ordered by solubility kinetic: over 25.7 µg/mL for the first, over 46.1 µg/mL for the second.

First: CCOC(=O)c1sc(NC(=O)CC)c(C#N)c1C
Second: CCc1nnc(NC(=O)CCC(=O)NC2CC2)s1
The solubility kinetic of the first is lower: 1.4 µg/mL (≈ 5.26 µM) for the first, over 40.2 µg/mL for the second.

Going from `N#C/C(=C\c1ccccc1)C(=O)Nc1ccccn1` to `O=C(COC(=O)/C=C/c1ccccc1Cl)Nc1cccnc1Cl`, the solubility kinetic falls from over 37.4 µg/mL to 2.9 µg/mL (≈ 8.26 µM).

First: Cc1ccc(C(C)C)c(OCCCCCN2CCOCC2)c1
Second: Clc1ccc(OCCCCCN2CCOCC2)cc1
The solubility kinetic of the first is 2.1-fold lower: 12.8 µg/mL (≈ 41.9 µM) for the first, 26.6 µg/mL (≈ 93.7 µM) for the second.

Compared with `CCCc1ccc(C(=O)/C=C/N(C)C)cc1`, `CCOc1ccc(C(=O)NCC(=O)NCCOc2ccc(C)cc2)cc1` is 2.6-fold lower in solubility kinetic: 26.9 µg/mL (≈ 124 µM) for the first, 10.4 µg/mL (≈ 29.2 µM) for the second.

Going from `O=C1CC(N2CCN(c3ccc(F)cc3)CC2)C(=O)N1c1ccccc1` (stereo not given) to `COc1cccc(CNC(=O)N2CCN(c3ccccc3C)CC2)c1`, the solubility kinetic falls from 49.4 µg/mL (≈ 140 µM) to 15.3 µg/mL (≈ 45.1 µM) (3.2-fold).

First: CC(=O)Nc1cccc2c1C(=O)N(c1ccccc1OC(C)=O)C2=O
Second: CCOc1ccccc1NC(=O)c1ccc2ccccc2c1
The solubility kinetic of the first is higher: over 50.7 µg/mL for the first, under 0.6 µg/mL for the second.

Going from `O=c1[nH]c(=O)n(Cc2ccco2)c(O)c1C=NCCN1CCNCC1` to `Cc1ccc(S(=O)(=O)N2CCN(C(=O)c3ccco3)CC2)c(C)c1`, the solubility kinetic falls from over 52.1 µg/mL to 49 µg/mL (≈ 141 µM).

Compared with `C/C(=N\OCC(=O)NC(C)C)c1cccs1`, `CC(C)C[C@H](NC(=O)NC1CCCc2ccccc21)C(=O)O` (stereo not given in full) is higher in solubility kinetic: 32.5 µg/mL (≈ 135 µM) for the first, over 45.7 µg/mL for the second.

First: CC(=Nc1ccccc1N)c1c(O)n(C)c(=O)n(C)c1=O
Second: CC1CCN(C(=O)COC(=O)c2nn(C)c(=O)c3ccccc23)CC1
The solubility kinetic of the first is lower: 3.6 µg/mL (≈ 12.5 µM) for the first, over 51.5 µg/mL for the second.

Compared with `Nc1ccccc1SCCS(=O)(=O)c1ccc(Cl)cc1`, `CC(=O)Nc1ccc(S(=O)(=O)NC(C)c2ccccc2)cc1` (stereo not given) is higher in solubility kinetic: 2.2 µg/mL (≈ 6.71 µM) for the first, over 47.8 µg/mL for the second.

`CCC(Oc1ccccc1)C(=O)Nc1ncc([N+](=O)[O-])s1` (stereo not given) and `COc1cccc(NC(=O)c2cccnn2)c1` cannot be ordered by solubility kinetic: over 46.1 µg/mL for the first, over 34.4 µg/mL for the second.

First: COc1cc2[nH]c(C(=O)Nc3ccc(F)cc3)cc2c(OC)c1OC
Second: COc1ccccc1CCC(=O)N(C)CC(=O)Nc1ccc(F)cc1
The solubility kinetic of the first is 8.5-fold lower: 2.4 µg/mL (≈ 6.97 µM) for the first, 20.4 µg/mL (≈ 59.2 µM) for the second.

`CC#CC(=O)N1CCCC(C(=O)c2ccc(SC)cc2)C1` (stereo not given) and `O=C(Nc1ccc(S(=O)(=O)N2CCCCC2)cc1)C1CC1` cannot be ordered by solubility kinetic: over 45.2 µg/mL for the first, over 46.3 µg/mL for the second.

`O=C(CCc1ccccc1)Nc1cc2c3c(c1)CCC(=O)N3CCC2` and `Cc1ccc(NC(=O)CN2CCN(Cc3ccccc3)CC2)cc1F` are within 1.5-fold of each other in solubility kinetic: 40.3 µg/mL (≈ 121 µM) for the first, 42.8 µg/mL (≈ 125 µM) for the second.

Compared with `CN1C(=O)C(CCC(=O)O)NC1=S` (stereo not given), `CCN1CCCC1CNC(=O)C(=O)NC(C)C` (stereo not given) is higher in solubility kinetic: 28.2 µg/mL (≈ 139 µM) for the first, over 36.2 µg/mL for the second.

Compared with `Cc1cccc(C(=O)NCCNC(=O)c2cnccn2)c1`, `CC(=O)c1cccc(NC(=O)CCNC(=O)c2ccccc2Cl)c1` is higher in solubility kinetic: 38.5 µg/mL (≈ 135 µM) for the first, over 51.7 µg/mL for the second.

`COC(=O)C1CCN(C(=O)COc2ccc(S(=O)(=O)N3CCOCC3)cc2Cl)CC1` and `COc1ccccc1S(=O)(=O)Nc1cccc(S(=O)(=O)N2CCCC2)c1` cannot be ordered by solubility kinetic: over 69.1 µg/mL for the first, over 59.5 µg/mL for the second.

Compared with `Cc1ccccc1NCN1C(=O)C2CCC(C)(C1=O)C2(C)C` (stereo not given), `Cc1ccc(CN2CCN(c3ccccc3Cl)CC2)o1` is 3.1-fold lower in solubility kinetic: 30.6 µg/mL (≈ 102 µM) for the first, 10 µg/mL (≈ 34.4 µM) for the second.

`CCOc1ccc(/C=N/N2C(C)CCCC2C)cc1OC` (stereo not given) and `COc1ccc(OCC(O)CN2CC(C)OC(C)C2)cc1.Cl` (stereo not given) cannot be ordered by solubility kinetic: over 43.6 µg/mL for the first, over 49.8 µg/mL for the second.

First: CCCCOc1ccc(C2C(C(=O)c3ccc(C)o3)=C(O)C(=O)N2Cc2ccco2)cc1 (stereo not given)
Second: Cc1ccnc(NS(=O)(=O)c2ccc(NC(=O)c3oc4ccc(F)cc4c3C)cc2)n1
The solubility kinetic of the first is 29-fold higher: 46.9 µg/mL (≈ 108 µM) for the first, 1.6 µg/mL (≈ 3.63 µM) for the second.

Compared with `Cc1cc(C)cc(NC(=O)CCn2ccnc2)c1`, `O=C(Nc1ccc2c(c1)OCO2)c1ccccn1` is lower in solubility kinetic: over 36.5 µg/mL for the first, 31.4 µg/mL (≈ 130 µM) for the second.

First: FC(F)Oc1ccc(NC(=S)NCc2cccnc2)cc1
Second: O=C(Nc1ccc(NS(=O)(=O)c2ccccc2)cc1)c1ccccc1Cl
The solubility kinetic of the first is higher: over 46.4 µg/mL for the first, 6.1 µg/mL (≈ 15.8 µM) for the second.

First: C#CC(C)OC(=O)Nc1cnccc1C(F)(F)F (stereo not given)
Second: COc1cccc(NC(=O)COC(=O)C2CC2)c1
The solubility kinetic of the first is lower: 36 µg/mL (≈ 139 µM) for the first, over 37.4 µg/mL for the second.

First: COc1ccccc1C(=O)Nc1nc(C)cc(C)n1
Second: COc1ccc(-c2nonc2NC(=O)c2ccco2)cc1OC
The solubility kinetic of the first is lower: 31.7 µg/mL (≈ 123 µM) for the first, over 47.3 µg/mL for the second.

`O=C(O)c1cc2c(cn1)[nH]c1ccccc12` and `Cc1ccc(-c2cc(C(=O)N3CCOCC3)c3ccccc3n2)o1` cannot be ordered by solubility kinetic: over 31.8 µg/mL for the first, over 48.4 µg/mL for the second.

Compared with `Cc1c(C(=O)NC(C)C2CC3CCC2C3)cccc1[N+](=O)[O-]` (stereo not given), `COc1cccc(NC(=O)COC(=O)CCC2CCCC2)c1` is higher in solubility kinetic: 34.3 µg/mL (≈ 113 µM) for the first, over 45.8 µg/mL for the second.

Going from `CCOC(=O)NC(N(O)c1cccc(Cl)c1)C(Cl)(Cl)Cl` (stereo not given) to `O=S(=O)(Nc1ccncc1Cl)c1cc(Cl)ccc1Cl`, the solubility kinetic rises from 37.1 µg/mL (≈ 102 µM) to over 50.6 µg/mL.

Going from `Cc1c(Cc2ccccc2)c(=O)n2c([nH]c3ccccc32)c1C#N` to `COc1cc(/C=C/c2ccc3cccc(O)c3n2)ccc1O`, the solubility kinetic rises from under 0.2 µg/mL to 4.8 µg/mL (≈ 16.4 µM).

Compared with `CC1CC(C)CN(S(=O)(=O)c2ccc3c(c2)CC(=O)N3)C1` (stereo not given), `O=C(COC(=O)c1ccc(Cl)nc1)Nc1ccc2c(c1)OCCO2` is 2-fold lower in solubility kinetic: 9.4 µg/mL (≈ 30.5 µM) for the first, 4.8 µg/mL (≈ 13.8 µM) for the second.
